Laboratory results from patent EP2698385A1, “Detection of synthetic cannabinoids” (priority 2012, dated 2014).

Experiments:
[1] = system: Antibody to Immunogen VIII; assay type: binding, sheep; conditions: Cross-reactants at 100 ng/ml; Antibody to Immunogen VIII
Antibody to Immunogen IV = assay type: binding, sheep; conditions: Cross-reactants at 100 ng/ml; Antibody to Immunogen IV
[2] = system: Antibody to Immunogen VII; assay type: binding, sheep; conditions: Cross-reactants at 100 ng/ml; Antibody to Immunogen VII
[3] = system: antibodies raised to Immunogens I & II; assay: Competitive ELISA (Example 19), sensitivity and cross-reactivity of selected molecules, one result for both antibodies; assay type: binding, sheep; conditions: for % CR / IC50: first Table 3, Standard Conc 750.00 ng/ml; for binding / cross-reaction with antibodies raised from Immunogens I and II: result in words
Description: (§1) Aqueous solutions of the immunogens prepared in examples 5 and 13 were formulated with Freund's Complete Adjuvant (FCA) to form emulsions consisting of 2mg/ml Immunogen I and 2mg/ml of Immunogen II in 50%(v/v) FCA. Three sheep were immunised with each emulsion (1° immunisations), 0.25ml being intramuscularly injected at four sites in the rump of each animal. Subsequent immunisations (boosts 2-8) contained 1mg/ml Immunogen I and 1mg/ml Immunogen II. All boosts were emulsified in 50%(v/v) Freund's Incomplete Adjuvant (FIA) and administered to the appropriate sheep in the same manner as the 1° immunisations, at monthly intervals. Blood sampling took place 7-14 days after each boost. Each sample was processed to produce antiserum, which was further purified by caprylic acid and ammonium sulphate precipitation to yield an immunoglobulin (Ig) fraction. The Ig fraction was evaluated by competitive ELISA microtiter plate assay, as described in example 19 below.
(§2) Example 19: Development of competitive ELISA for JWH synthetic cannabinoids and metabolites. • (a) The wells of an enhanced binding 96 well polystyrene microtiter plate were coated with the Ig fraction of the antiserum raised to Immunogen I (Hapten A-BTG - example 5) and diluted in 10mM Tris, pH8.5 (125µl/well). The appropriate antibody coating concentration was determined using standard ELISA checkerboard techniques. The plate was incubated for 2 hours at 37°C, washed 4 times over a 10-minute period with Tris buffered saline containing Tween 20 (TBST) and tapped dry. Standard solutions of JWH synthetic cannabinoids, metabolites and selected molecules were prepared in TBST and 50µl of each was added to the appropriate wells. 75µl of conjugate (Hapten A-HRP) diluted in Tris buffer containing EDTA, D-mannitol, sucrose, thimerosal and BSA, was added to each of the wells. The appropriate dilution of conjugate was also determined using standard ELISA checkerboard techniques. The plate was incubated at 25°C for 1 hour. The excess unbound conjugate was removed by washing 6 times over a 10-minute period with TBST and tapped dry. 125µl of tetramethylbenzedine (TMB) substrate solution was added to each well of the plate that was then incubated for 15-20 minutes in the dark at room temperature. The reaction was terminated by addition of 125µl of 0.2M sulphuric acid to each well. The absorbance was then measured at 450nm using a microtiter plate reader. Employing each series of standards, calibration curves were generated and these were used to determine the specificity of the immunoassay for the JWH synthetic cannabinoids, metabolites and selected molecules. The results of this study are presented in Tables 1 to 3, cross-reactivity being calculated according to the following formula: %CR = […] /IC50,CR X 100 [formula] Where %CR is the percentage cross-reactivity, IC50, YWH-018 is the concentration of JWH-018 that causes 50% displacement of signal and IC50, CR is the concentration of JWH synthetic cannabinoid/metabolite/selected molecule that causes 50% displacement of signal.
Table 2: Data generated from a competitive microtiter plate assay for JWH synthetic cannabinoids and metabolites, employing antiserum raised to Immunogen I (Hapten A-BTG) and conjugate (Hapten A-HRP) as detection reagent. • (c) The resulting competitive ELISA for synthetic cannabinoids and metabolites was further employed to analyse urine and serum samples from 20 patients (Table 3). • (d) The resulting competitive ELISA for synthetic cannabinoids and metabolites was also employed to test for the 5-fluoropentyl derivative of JWH-018, (1-(5-fluoropentyl)indol-3yl (1-naphthyl) methanone (Table 4).

CB1 receptor = CB1 receptor (Homo sapiens, UniProt P21554); conditions: result in words; detailed in US6900236; cited from earlier work
Chain of CB1 receptor (P21554 whole entry): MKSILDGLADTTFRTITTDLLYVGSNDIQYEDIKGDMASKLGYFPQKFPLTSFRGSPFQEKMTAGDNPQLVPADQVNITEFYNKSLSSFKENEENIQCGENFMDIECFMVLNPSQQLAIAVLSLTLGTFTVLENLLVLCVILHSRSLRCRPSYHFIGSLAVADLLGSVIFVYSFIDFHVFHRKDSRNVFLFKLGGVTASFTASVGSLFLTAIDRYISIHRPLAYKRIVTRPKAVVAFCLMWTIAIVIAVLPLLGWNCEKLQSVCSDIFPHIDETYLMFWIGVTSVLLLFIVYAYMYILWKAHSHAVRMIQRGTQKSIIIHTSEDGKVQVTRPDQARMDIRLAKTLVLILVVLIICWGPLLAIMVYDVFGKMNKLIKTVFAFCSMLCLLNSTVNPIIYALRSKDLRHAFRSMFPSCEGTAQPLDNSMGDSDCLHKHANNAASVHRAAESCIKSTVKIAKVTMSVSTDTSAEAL

[4] = system: antiserum raised to Immunogen II (Hapten B-BTG); assay: Competitive ELISA microtiter plate assay (Example 19), antiserum raised to Immunogen II, Hapten A-HRP conjugate as detection reagent; assay type: binding, sheep; conditions: first Table 4, Immunogen II
Description: as §1, §2
Table 1: Data generated from a competitive microtiter plate assay for JWH synthetic cannabinoids and metabolites, employing antiserum raised to Immunogen II (Hapten B-BTG) and conjugate (Hapten A-HRP) as detection reagent. (b) In a similar manner to that described in Example 19(a), the wells of a 96 well microtiter plate were coated with the Ig fraction of the antiserum raised to Immunogen II ([…]). Conjugate (Hapten A-HRP) was employed as a detection reagent.

[5] = system: antiserum raised to Immunogen I (Hapten A-BTG); assay: Competitive ELISA microtiter plate assay (Example 19), antiserum raised to Immunogen I, Hapten A-HRP conjugate as detection reagent; assay type: binding, sheep; conditions: first Table 4, Immunogen I
Description: as §1, §2
Table 1: Data generated from a competitive microtiter plate assay for JWH synthetic cannabinoids and metabolites, employing antiserum raised to Immunogen II (Hapten B-BTG) and conjugate (Hapten A-HRP) as detection reagent. (b) In a similar manner to that described in Example 19(a), the wells of a 96 well microtiter plate were coated with the Ig fraction of the antiserum raised to Immunogen II ([…]). Conjugate (Hapten A-HRP) was employed as a detection reagent. […]

Antibody to Immunogen I = assay type: binding, sheep; conditions: Cross-reactants at 100 ng/ml; Antibody to Immunogen I
Summary of the method: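 Sheep anti-Immunogen I IgG coated on plates, then JWH-018 standards (0–40 ng/ml) competed with hapten-HRP conjugate for 1 h at 25°C. TMB read-out at 450 nm, 4-parameter fit. IC50 is the standard concentration giving 50% B/B0; cross-reactivity of related cannabinoids taken from the calibration curves.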

Antibody to Immunogen II = assay: Competitive ELISA (Example 36), antibody RS1833B12, tracer ESC4555/LK959, standard JWH-018; assay type: binding, sheep; conditions: Cross-reactants at 100 ng/ml; Antibody to Immunogen II
Description: An aqueous solution of each immunogen was formulated with Freund's Complete Adjuvant (FCA) to form an emulsion consisting of 2mg/ml* immunogen in 50% (v/v) FCA. Three sheep were immunised with this emulsion (1° immunisation), 0.25ml being intramuscularly injected at each of four sites in the flank of each animal. Subsequent immunizations (boosts) contained 1mg/ml* immunogen. All boosts were emulsified in 50% (v/v) Freund's Incomplete Adjuvant (FIA) and were administered in the same manner as the 1° immunisation, at monthly intervals. Blood sampling took place 7 to 14 days after each boost. *The general procedure for immunogen administration is outlined above, however, it was necessary to deviate from this protocol in some cases, due to reduced immunogen concentrations (Immunogens II, IV, VII and VIII) and/or amount available (Immunogen VIII). Any deviations from the protocol described are outlined in Table 1A below and highlighted in bold. Table 1A: Amount and volume of immunogens administered for primary and subsequent boosts
The appropriate antibody coating dilution was determined using standard ELISA checkerboard techniques. The plate was incubated overnight at 4°C, washed 4 times over 10 minutes with Tris buffered saline containing Tween 20 (TBST) and tapped dry. […] 75µl of conjugate (appropriate hapten-HRP) diluted in Tris buffer (pH 7.2) containing EDTA, D-mannitol, sucrose, thimerosal and BSA, was added to each of the wells. The appropriate dilution of conjugate was also determined using standard ELISA checkerboard techniques. The plate was incubated at 25°C for 1 hour. Excess unbound conjugate was removed by washing 6 times over a 10 minute period with TBST. 125µl of tetramethylbenzidine (TMB) substrate solution was added to each well of the plate that was then incubated for 20 minutes in the dark at room temperature. The reaction was terminated by addition of 125µl 0.2M H2SO4 to each well. The absorbance was then measured at 450nm using a microtiter plate reader. The data are inputted to a computer program called 'KC Junior'. It is a 4 parameter fit curve and allow the calculatation of concentrations between the standard runs.
In a similar manner to that described above, the wells of a 96-well microtiter plate were coated with the IgG fraction of the antiserum raised to Immunogens I or II.
The data set our in Tables 3 and 4 are generated using antibodies raised against the indicated Immunogens in a competitive binding assay with the indicated tracers, using the indicated standards: Table 2
Using the calibration curves generated and employing a single level of cross reactants, these were used to determine the cross-reactivity of each immunoassay with these substances. These are the standards used for the IC50 and cross-reactivity data generation • Immunogen I - JWH-018 • Immunogen II - JWH-018 • Immunogen IV - JWH-018 • Immunogen VII - JWH-015 • Immunogen VIII - JWH-018 Table 4: Cross reactivity of the competitive ELISAs for synthetic cannabinoids and their metabolites

SMILES: O=C(O)Cc1c[nH]c2ccc(O)cc12 [5-hydroxyindole-3-acetic acid (5-HIAA), 5-hydroxyindole-3-acetic acid]
- %B/B0 [1]: 108.24%
- %B/B0 (Antibody to Immunogen IV): 96.61%
- %B/B0 [2]: 99.46%
- % CR [3]: < 0.28%
- IC50 [3]: > 750.00 ng/mL

SMILES: O=C(c1cccc2ccccc12)c1cn(CCCCCF)c2ccccc12 [5-Fluoropentyl derivative, 1-(5-Fluoropentyl)indol-3-yl (1-naphthyl) methanone]
- binding / cross-reaction with antibodies raised from Immunogens I and II [3]: binds
- binding to the CB1 receptor (CB1 receptor): known to bind
- IC50 [4]: 0.22 ng/mL
- % Cross-reactivity ([4]; JWH-018 = 100): 908.00%
- IC50 [5]: 0.02 ng/mL
- % Cross-reactivity ([5]; JWH-018 = 100): 11500.00%

SMILES: COc1cccc2[nH]cc(CCN(C)C)c12 [4-Methoxypsilocin]
- % CR [3]: < 0.28%
- IC50 [3]: > 750.00 ng/mL

SMILES: O=C(O)c1c[nH]c2ccccc12 [Indole-3-carboxylic Acid]
- %B/B0 [1]: 96.28%
- %B/B0 (Antibody to Immunogen IV): 93.42%
- %B/B0 [2]: 96.90%
- % CR [3]: < 0.28%
- IC50 [3]: > 750.00 ng/mL
- binding / cross-reaction with antibodies raised from Immunogens I and II [3]: do not cross-react

SMILES: CCCCCc1cc(O)c2c(c1)OC(C)(C)c1ccc(C)cc1-2 [Cannabinol]
- %B/B0 [1]: 94.03%
- %B/B0 (Antibody to Immunogen IV): 94.74%
- %B/B0 [2]: 95.43%
- % CR [3]: < 0.28%
- IC50 [3]: > 750.00 ng/mL

SMILES: OCCc1c[nH]c2ccc(O)cc12 [5-hydroxytryptophol]
- %B/B0 [1]: 102.93%
- %B/B0 (Antibody to Immunogen IV): 94.51%
- %B/B0 [2]: 98.45%
- % CR [3]: < 0.28%
- IC50 [3]: > 750.00 ng/mL

SMILES: CCCCCc1cc(O)c2c(c1)OC(C)(C)[C@@H]1CCC(C)=C[C@@H]21 [Delta 9 THC]
- %B/B0 [1]: 96.10%
- %B/B0 (Antibody to Immunogen IV): 93.62%
- %B/B0 [2]: 96.76%
- % CR [3]: < 0.28%
- IC50 [3]: > 750.00 ng/mL

SMILES: NCCc1c[nH]c2ccc(O)cc12 [Serotonin]
- % CR [3]: < 0.28%
- IC50 [3]: > 750.00 ng/mL

SMILES: CCCCCc1cc(O)c2c(c1)OC(C)(C)[C@@H]1CCC(CO)=C[C@@H]21 [11-Hydroxy-δ-9-THC]
- % CR [3]: < 0.28%
- IC50 [3]: > 750.00 ng/mL

SMILES: CCn1cc(C(=O)c2cccc3ccccc23)c2ccccc21 [JWH-071]
- binding / cross-reaction with antibodies raised from Immunogens I and II [3]: bind

SMILES: CCCCCCC(C)(C)c1ccc([C@H]2CCC[C@@H](O)C2)c(O)c1 (racemic) [CP-49,497-C7 ((+-) CP 47,497), CP 47,497]
- %B/B0 (Antibody to Immunogen I): 101.20%
- %B/B0 [1]: 86.95%
- %B/B0 (Antibody to Immunogen IV): 96.84%
- %B/B0 [2]: 94.23%
- % CR [3]: < 0.28%
- IC50 [3]: > 750.00 ng/mL

SMILES: CCCCCn1cc(C(=O)O)c2ccccc21 [3-Carboxy-N-pentyl-1H -indole, 3-carboxy-1-pentyl-1H-indole]
- % CR [3]: < 0.28%
- IC50 [3]: > 750.00 ng/mL

SMILES: CC(C)(C)Cn1cc(C(=O)c2cccc3ccccc23)c2ccccc21 [JWH-018 N-(2,2-dimethylpropyl) isomer]
- %B/B0 (Antibody to Immunogen I): 3.89%
- %B/B0 [1]: 95.09%
- %B/B0 (Antibody to Immunogen IV): 80.42%
- %B/B0 [2]: 52.46%
- %B/B0 (Antibody to Immunogen II): 60.15%
